Laboratory results taken from patent US10472356B2, “Bicyclic ketone sulfonamide compounds” (AMGEN INC., priority 2015, dated 2019).

Legend:
human Nav1.7 [1] = target: T1, human Nav1.7 (Homo sapiens, UniProt Q15858); assay: Nav 1.7 IWB In Vitro Assay (IonWorks Barracuda); assay type: cell-based; conditions: HEK293 cells stably transfected with human Nav 1.7; IonWorks Barracuda population patch-clamp; cells clamped to −20 mV for 4 minutes with compound; 26th pulse; read-out: hNav1.7 IWB IC50
T1 construct: expressed in transfected cells; host or cells: HEK293
T1 sequence (Q15858 whole entry): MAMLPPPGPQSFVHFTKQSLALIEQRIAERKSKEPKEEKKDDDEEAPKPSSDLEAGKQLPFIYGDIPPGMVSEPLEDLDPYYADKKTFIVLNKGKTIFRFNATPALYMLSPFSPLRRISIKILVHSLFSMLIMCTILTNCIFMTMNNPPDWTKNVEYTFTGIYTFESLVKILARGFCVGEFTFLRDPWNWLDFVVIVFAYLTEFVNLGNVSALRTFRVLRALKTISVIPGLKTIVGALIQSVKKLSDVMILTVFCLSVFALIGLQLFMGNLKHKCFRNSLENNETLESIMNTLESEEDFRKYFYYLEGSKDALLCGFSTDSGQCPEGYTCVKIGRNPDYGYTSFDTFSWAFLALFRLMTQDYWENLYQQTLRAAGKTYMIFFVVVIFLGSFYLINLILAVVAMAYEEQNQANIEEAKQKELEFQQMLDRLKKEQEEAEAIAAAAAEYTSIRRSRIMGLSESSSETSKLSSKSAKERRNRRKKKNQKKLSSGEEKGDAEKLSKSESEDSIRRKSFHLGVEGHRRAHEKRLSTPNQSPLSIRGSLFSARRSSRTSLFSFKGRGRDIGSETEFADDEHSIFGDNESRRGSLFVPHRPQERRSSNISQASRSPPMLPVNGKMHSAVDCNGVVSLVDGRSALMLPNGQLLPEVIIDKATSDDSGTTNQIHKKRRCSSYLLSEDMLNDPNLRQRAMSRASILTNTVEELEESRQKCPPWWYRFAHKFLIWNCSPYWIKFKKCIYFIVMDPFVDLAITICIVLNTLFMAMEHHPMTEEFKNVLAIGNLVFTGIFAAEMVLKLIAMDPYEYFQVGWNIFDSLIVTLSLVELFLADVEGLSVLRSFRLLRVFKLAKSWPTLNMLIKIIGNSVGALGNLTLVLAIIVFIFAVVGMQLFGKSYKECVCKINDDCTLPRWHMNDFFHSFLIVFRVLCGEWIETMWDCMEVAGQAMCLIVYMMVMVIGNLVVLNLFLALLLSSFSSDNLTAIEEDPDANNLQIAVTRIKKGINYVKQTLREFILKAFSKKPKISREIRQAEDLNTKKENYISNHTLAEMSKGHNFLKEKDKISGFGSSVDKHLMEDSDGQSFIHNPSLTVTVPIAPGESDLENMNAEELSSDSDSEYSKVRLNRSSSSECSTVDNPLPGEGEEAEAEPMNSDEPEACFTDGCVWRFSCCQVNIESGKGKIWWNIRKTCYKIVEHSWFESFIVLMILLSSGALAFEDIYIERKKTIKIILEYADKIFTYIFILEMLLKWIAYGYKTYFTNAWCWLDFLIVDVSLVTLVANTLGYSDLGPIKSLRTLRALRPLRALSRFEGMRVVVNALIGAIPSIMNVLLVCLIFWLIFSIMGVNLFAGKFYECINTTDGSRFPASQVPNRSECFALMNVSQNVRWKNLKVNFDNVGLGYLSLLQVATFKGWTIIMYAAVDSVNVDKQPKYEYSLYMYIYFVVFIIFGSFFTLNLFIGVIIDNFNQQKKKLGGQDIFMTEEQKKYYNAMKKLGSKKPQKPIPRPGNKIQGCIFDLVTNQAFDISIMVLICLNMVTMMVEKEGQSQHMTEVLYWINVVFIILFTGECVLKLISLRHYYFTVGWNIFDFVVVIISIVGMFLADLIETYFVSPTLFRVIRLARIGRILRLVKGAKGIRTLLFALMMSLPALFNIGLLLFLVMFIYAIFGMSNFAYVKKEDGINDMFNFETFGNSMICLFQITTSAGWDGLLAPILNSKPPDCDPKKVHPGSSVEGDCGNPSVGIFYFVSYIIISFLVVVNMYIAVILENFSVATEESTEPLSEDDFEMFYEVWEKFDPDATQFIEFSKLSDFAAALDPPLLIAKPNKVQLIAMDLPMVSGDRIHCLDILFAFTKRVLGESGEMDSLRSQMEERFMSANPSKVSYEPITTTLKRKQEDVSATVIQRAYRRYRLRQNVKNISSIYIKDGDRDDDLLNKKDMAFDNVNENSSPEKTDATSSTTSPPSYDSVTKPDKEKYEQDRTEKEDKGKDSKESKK
Procedure, shortened: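 Population patch clamp of HEK293 cells stably expressing human Nav 1.7: 26 pulses to −20 mV (150 ms, 5 Hz) from −110 mV, then 4 min at −20 mV with compound, 3 s recovery at −110 mV and the train repeated. % inhibition of 26th-pulse peak current vs no compound; IC50 from concentration-response curves.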

human Nav1.7 [2] = target: T1, human Nav1.7; assay: Nav 1.7 In Vitro PatchXpress (PX) Assay; assay type: cell-based; conditions: HEK 293 cells stably transfected with human Nav1.7; PatchXpress whole cell voltage clamp; partially inactivated state (holding potential yielding 20 to 50% inactivation); read-out: hNav1.7 PX IC50
Description: Nav 1.7 In Vitro PatchXpress (PX) Assay
HEK 293 cells stably transfected with human Nav1.7 were recorded in whole cell voltage clamp mode with the PatchXpress automated electrophysiology system (Molecular Devices, LLC, Sunnyvale, Calif.). Compound effects were measured on a partially inactivated state of the sodium channel. Cells were clamped to a holding potential yielding 20 to 50% inactivation. To elicit sodium current, channels were activated by pulsing to −10 mV for 20 msec. This voltage protocol was repeated at a rate of 0.1 Hz throughout the experiment. A single concentration of test compound was applied to cells for a duration of 3 minutes. Peak sodium current was measured at the end of the compound addition period to determine percent inhibition. Three to five cells were tested per concentration, and IC50 curves were fitted to percent inhibition as a function of concentration.

Row | IC50 (human Nav1.7 [1]) | IC50 (human Nav1.7 [2]) | SMILES
1 | > 30000 nM | > 1000 nM | COc1cc(-c2cc(F)cc(F)c2)c(F)cc1-n1c2c(ccc1=O)CN(S(=O)(=O)Nc1ccon1)[C@@H](C)C2 (single isomer, unassigned) [Example 3-C-P]
2 | 25.9 nM | 241 nM | COc1cc(-c2cc(F)cc(Cl)c2)ccc1-n1c2c(ccc1=O)CN(S(=O)(=O)Nc1cccnn1)CC2 (single isomer, unassigned) [Example 8-P, P-1-(3′-chloro-5′-fluoro-3-methoxy-4-biphenylyl)-2-oxo-N-3-pyridazinyl-1,5,7,8-tetrahydro-1,6-naphthyridine-6(2H)-sulfonamide]
3 | 55 nM | 772 nM | COc1cc(-c2cc(Cl)ccc2C)c(F)cc1-n1c2c(ccc1=O)CN(S(=O)(=O)Nc1ccon1)CC2 (single isomer, unassigned) [Example 9-M, M-1-(5′-chloro-2-fluoro-5-methoxy-2′-methyl-4-biphenylyl)-N-3-isoxazolyl-2-oxo-1,5,7,8-tetrahydro-1,6-naphthyridine-6(2H)-sulfonamide]
4 | 102 nM | 612 nM | COc1cc(-c2cc(F)cc(F)c2)c(F)cc1-n1c2c(ccc1=O)CN(S(=O)(=O)Nc1ncc(F)cn1)CC2 (single isomer, unassigned) [Example 10-M, M-N-(5-fluoro-2-pyrimidinyl)-2-oxo-1-(2,3′,5′-trifluoro-5-methoxy-4-biphenylyl)-1,5,7,8-tetrahydro-1,6-naphthyridine-6(2H)-sulfonamide]
5 | 52.9 nM | 644 nM | COc1cc(-c2cc(F)cc(F)c2)c(F)cc1-n1c2c(ccc1=O)CN(S(=O)(=O)Nc1ncc(F)cn1)CC2 (single isomer, unassigned) [Example 10-P, P-N-(5-fluoro-2-pyrimidinyl)-2-oxo-1-(2,3′,5′-trifluoro-5-methoxy-4-biphenylyl)-1,5,7,8-tetrahydro-1,6-naphthyridine-6(2H)-sulfonamide]
6 | 849 nM | 4500 nM | COc1cc(-c2cc(F)cc(Cl)c2)c(F)cc1-n1c2c(ccc1=O)CN(S(=O)(=O)Nc1ccccn1)CC2 (single isomer, unassigned) [Example 11-M, M-1-(3′-chloro-2,5′-difluoro-5-methoxy-4-biphenylyl)-2-oxo-N-2-pyridinyl-1,5,7,8-tetrahydro-1,6-naphthyridine-6(2H)-sulfonamide]
7 | 983 nM | 7550 nM | COc1cc(-c2cc(F)cc(Cl)c2)c(F)cc1-n1c2c(ccc1=O)CN(S(=O)(=O)Nc1cccc(F)n1)CC2 (single isomer, unassigned) [Example 13-M, M-1-(3′-chloro-2,5′-difluoro-5-methoxy-4-biphenylyl)-N-(6-fluoro-2-pyridinyl)-2-oxo-1,5,7,8-tetrahydro-1,6-naphthyridine-6(2H)-sulfonamide]
8 | 34.3 nM | 292 nM | COc1cc(-c2cc(F)cc(F)c2)c(F)cc1-n1c2c(ccc1=O)CN(S(=O)(=O)Nc1ncon1)CC2 (single isomer, unassigned) [Example 17-M, M-N-1,2,4-oxadiazol-3-yl-2-oxo-1-(2,3′,5′-trifluoro-5-methoxy-4-biphenylyl)-1,5,7,8-tetrahydro-1,6-naphthyridine-6(2H)-sulfonamide]
9 | 567 nM | 3560 nM | COc1cc(-c2cc(F)cc(Cl)c2)c(F)cc1-n1c2c(ccc1=O)CN(S(=O)(=O)Nc1ccon1)CC2 (single isomer, unassigned) [Example 18-M, M-1-(3′-chloro-2,5′-difluoro-5-methoxy-4-biphenylyl)-N-3-isoxazolyl-2-oxo-1,5,7,8-tetrahydro-1,6-naphthyridine-6(2H)-sulfonamide]
10 | 1940 nM | 17100 nM | COc1cc(-c2cccc(OC(F)F)c2)c(F)cc1-n1c2c(ccc1=O)CN(S(=O)(=O)Nc1ccon1)CC2 (single isomer, unassigned) [Example 19-M, M-1-(3′-(difluoromethoxy)-2-fluoro-5-methoxy-4-biphenylyl)-N-3-isoxazolyl-2-oxo-1,5,7,8-tetrahydro-1,6-naphthyridine-6(2H)-sulfonamide]
11 | 2670 nM | > 30000 nM | COc1cc(-c2ccc(F)c(F)c2)c(F)cc1-n1c2c(ccc1=O)CN(S(=O)(=O)Nc1ccon1)CC2 (single isomer, unassigned) [Example 20-M, M-N-3-isoxazolyl-2-oxo-1-(2,3′,4′-trifluoro-5-methoxy-4-biphenylyl)-1,5,7,8-tetrahydro-1,6-naphthyridine-6(2H)-sulfonamide]
12 | 1550 nM | 4940 nM | COc1cc(-c2ccc(C)c(F)c2)c(F)cc1-n1c2c(ccc1=O)CN(S(=O)(=O)Nc1ccon1)CC2 (single isomer, unassigned) [Example 21-M, M-1-(2,3′-difluoro-5-methoxy-4′-methyl-4-biphenylyl)-N-3-isoxazolyl-2-oxo-1,5,7,8-tetrahydro-1,6-naphthyridine-6(2H)-sulfonamide]
13 | > 10000 nM | > 30000 nM | COc1cc(-c2ccc(F)c(C)c2)c(F)cc1-n1c2c(ccc1=O)CN(S(=O)(=O)Nc1ccon1)CC2 (single isomer, unassigned) [Example 22-M, M-1-(2,4′-difluoro-5-methoxy-3′-methyl-4-biphenylyl)-N-3-isoxazolyl-2-oxo-1,5,7,8-tetrahydro-1,6-naphthyridine-6(2H)-sulfonamide]
14 | > 10000 nM | > 30000 nM | COc1cc(-c2ccc(F)c(F)c2)c(F)cc1-n1c2c(ccc1=O)CN(S(=O)(=O)Nc1ncccn1)CC2 (single isomer, unassigned) [Example 28-M, M-2-oxo-N-2-pyrimidinyl-1-(2,3′,4′-trifluoro-5-methoxy-4-biphenylyl)-1,5,7,8-tetrahydro-1,6-naphthyridine-6(2H)-sulfonamide]
15 | 80.5 nM | 499 nM | COc1cc(-c2ccc(F)c(F)c2)c(F)cc1-n1c2c(ccc1=O)CN(S(=O)(=O)Nc1ncccn1)CC2 (single isomer, unassigned) [Example 28-P, P-2-oxo-N-2-pyrimidinyl-1-(2,3′,4′-trifluoro-5-methoxy-4-biphenylyl)-1,5,7,8-tetrahydro-1,6-naphthyridine-6(2H)-sulfonamide]
16 | > 2500 nM | > 30000 nM | COc1cc(-c2ccc(F)c(C)c2)c(F)cc1-n1c2c(ccc1=O)CN(S(=O)(=O)Nc1ncccn1)CC2 (single isomer, unassigned) [Example 29-M, M-1-(2,4′-difluoro-5-methoxy-3′-methyl-4-biphenylyl)-2-oxo-N-2-pyrimidinyl-1,5,7,8-tetrahydro-1,6-naphthyridine-6(2H)-sulfonamide]
17 | 55.5 nM | 568 nM | COc1cc(-c2ccc(F)c(C)c2)c(F)cc1-n1c2c(ccc1=O)CN(S(=O)(=O)Nc1ncccn1)CC2 (single isomer, unassigned) [Example 29-P, P-1-(2,4′-difluoro-5-methoxy-3′-methyl-4-biphenylyl)-2-oxo-N-2-pyrimidinyl-1,5,7,8-tetrahydro-1,6-naphthyridine-6(2H)-sulfonamide]
18 | 3910 nM | 24900 nM | COc1cc(-c2ccc(Cl)c(C)c2)c(F)cc1-n1c2c(ccc1=O)CN(S(=O)(=O)Nc1ncccn1)CC2 (single isomer, unassigned) [Example 30-M, M-1-(4′-chloro-2-fluoro-5-methoxy-3′-methyl-4-biphenylyl)-2-oxo-N-2-pyrimidinyl-1,5,7,8-tetrahydro-1,6-naphthyridine-6(2H)-sulfonamide]
19 | 2730 nM | 5020 nM | COc1cc(-c2cc(F)cc(Cl)c2)c(F)cc1-n1c2c(ccc1=O)CN(S(=O)(=O)Nc1ncccn1)CC2 (single isomer, unassigned) [Example 31-M, M-1-(3′-chloro-2,5′-difluoro-5-methoxy-4-biphenylyl)-2-oxo-N-2-pyrimidinyl-1,5,7,8-tetrahydro-1,6-naphthyridine-6(2H)-sulfonamide]
20 | 36.9 nM | 205 nM | COc1cc(-c2cc(F)cc(Cl)c2)c(F)cc1-n1c2c(ccc1=O)CN(S(=O)(=O)Nc1ncccn1)CC2 (single isomer, unassigned) [Example 31-P, P-1-(3′-chloro-2,5′-difluoro-5-methoxy-4-biphenylyl)-2-oxo-N-2-pyrimidinyl-1,5,7,8-tetrahydro-1,6-naphthyridine-6(2H)-sulfonamide]
21 | 1000 nM | 20600 nM | COc1cc(-c2ccc(F)c(F)c2)c(F)cc1-n1c2c(ccc1=O)CN(S(=O)(=O)Nc1cccnn1)CC2 (single isomer, unassigned) [Example 32-M, M-2-oxo-N-3-pyridazinyl-1-(2,3′,4′-trifluoro-5-methoxy-4-biphenylyl)-1,5,7,8-tetrahydro-1,6-naphthyridine-6(2H)-sulfonamide]
22 | 662 nM | 3120 nM | COc1cc(-c2cc(F)cc(Cl)c2)c(F)cc1-n1c2c(ccc1=O)CN(S(=O)(=O)Nc1cccnn1)CC2 (single isomer, unassigned) [Example 38-M, M-1-(3′-chloro-2,5′-difluoro-5-methoxy-4-biphenylyl)-2-oxo-N-3-pyridazinyl-1,5,7,8-tetrahydro-1,6-naphthyridine-6(2H)-sulfonamide]
